Measured values from ChEMBL document CHEMBL1136200, “Potent and selective inhibitors of platelet-derived growth factor receptor phosphorylation. Part 4: structure-activity relationships for substituents on the quinazoline moiety of 4-[4-(N-substituted(thio)carbamoyl)-1-piperazinyl]-6,7-dimethoxyquinazoline derivatives” (Bioorg Med Chem Lett, 2003).

Biological target: Platelet-derived growth factor receptor beta (Homo sapiens, UniProt P09619)
Experiment: Inhibitory concentration against platelet-derived growth factor receptor beta phosphorylation in CHO cells
Format: functional, cell-based, Cricetulus griseus

Sequence of Platelet-derived growth factor receptor beta (P09619 whole entry): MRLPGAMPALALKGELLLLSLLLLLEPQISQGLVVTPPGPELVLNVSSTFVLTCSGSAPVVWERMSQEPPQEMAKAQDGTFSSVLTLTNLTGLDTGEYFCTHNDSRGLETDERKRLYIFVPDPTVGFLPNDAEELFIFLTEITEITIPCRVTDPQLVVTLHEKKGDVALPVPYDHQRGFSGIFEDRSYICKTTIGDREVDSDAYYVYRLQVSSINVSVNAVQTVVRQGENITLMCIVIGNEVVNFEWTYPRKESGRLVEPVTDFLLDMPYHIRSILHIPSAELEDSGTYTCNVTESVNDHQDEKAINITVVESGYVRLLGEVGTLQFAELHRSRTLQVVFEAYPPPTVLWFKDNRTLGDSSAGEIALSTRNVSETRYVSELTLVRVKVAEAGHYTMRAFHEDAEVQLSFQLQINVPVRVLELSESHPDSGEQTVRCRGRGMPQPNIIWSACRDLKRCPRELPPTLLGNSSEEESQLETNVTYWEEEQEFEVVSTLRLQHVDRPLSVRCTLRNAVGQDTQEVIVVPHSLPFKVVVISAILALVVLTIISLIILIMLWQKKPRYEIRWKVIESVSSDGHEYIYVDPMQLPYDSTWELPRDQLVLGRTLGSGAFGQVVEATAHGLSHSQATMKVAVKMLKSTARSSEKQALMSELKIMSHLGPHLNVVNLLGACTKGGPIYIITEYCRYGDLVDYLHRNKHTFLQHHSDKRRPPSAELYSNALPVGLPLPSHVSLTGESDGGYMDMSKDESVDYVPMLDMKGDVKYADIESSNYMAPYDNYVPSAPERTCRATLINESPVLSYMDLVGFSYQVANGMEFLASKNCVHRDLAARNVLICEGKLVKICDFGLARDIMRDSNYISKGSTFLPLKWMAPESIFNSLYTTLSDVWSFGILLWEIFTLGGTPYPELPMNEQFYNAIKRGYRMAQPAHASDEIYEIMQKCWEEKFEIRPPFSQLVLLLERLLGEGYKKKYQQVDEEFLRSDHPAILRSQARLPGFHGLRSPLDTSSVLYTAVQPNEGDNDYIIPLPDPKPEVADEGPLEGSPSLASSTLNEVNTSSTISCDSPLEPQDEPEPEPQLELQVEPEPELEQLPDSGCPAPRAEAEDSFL

Compound	IC50 [nM]
CC(=O)Nc1cc2c(N3CCN(/C(S)=N\Cc4ccccc4)CC3)ncnc2cc1Cl	> 1000
CC(C)Oc1ccc2c(N3CCN(C(=O)Nc4ccc(Oc5ccccc5)cc4)CC3)ncnc2c1	1120
S=C(NCc1ccccc1)N1CCN(c2ncnc3cc(Cl)ccc23)CC1	5160
Nc1cc2ncnc(N3CCN(C(=O)Nc4ccc(Oc5ccccc5)cc4)CC3)c2cc1[N+](=O)[O-]	1160
O=C(Nc1ccc(Oc2ccccc2)cc1)N1CCN(c2ncnc3cc(Cl)c([N+](=O)[O-])cc23)CC1	1320
O=[N+]([O-])c1cc2c(N3CCN(C(=S)NCc4ccccc4)CC3)ncnc2cc1Cl	> 30000
COc1cccc2c(N3CCN(C(=O)Nc4ccc(Oc5ccccc5)cc4)CC3)ncnc12	10700
Nc1cc2c(N3CCN(C(=S)NCc4ccccc4)CC3)ncnc2cc1Cl	160
COC(=O)c1ccc2c(N3CCN(C(=O)Nc4ccc(Oc5ccccc5)cc4)CC3)ncnc2c1	> 750

Results, then the compound that gave them:

IC50 [nM]	Compound
1380	O=C(Nc1ccc(Oc2ccccc2)cc1)N1CCN(c2ncnc3ccc(Br)cc23)CC1
2880	O=C(Nc1ccc(Oc2ccccc2)cc1)N1CCN(c2ncnc3cc([N+](=O)[O-])ccc23)CC1
> 100	Cc1ccc2c(N3CCN(C(=O)Nc4ccc(Oc5ccccc5)cc4)CC3)ncnc2c1
6250	Cc1cccc2ncnc(N3CCN(C(=O)Nc4ccc(Oc5ccccc5)cc4)CC3)c12
5170	O=C(Nc1ccc(Oc2ccccc2)cc1)N1CCN(c2ncnc3ccc(I)cc23)CC1
> 30000	O=C(O)c1ccc2c(N3CCN(C(=O)Nc4ccc(Oc5ccccc5)cc4)CC3)ncnc2c1
350	O=C(Nc1ccc(Oc2ccccc2)cc1)N1CCN(c2ncnc3ccc(F)cc23)CC1
29700	O=C(Nc1ccc(Oc2ccccc2)cc1)N1CCN(c2ncnc3ccc([N+](=O)[O-])cc23)CC1
970	O=C(Nc1ccc(Oc2ccccc2)cc1)N1CCN(c2ncnc3cc(F)c(F)cc23)CC1
540	Cc1ccc2ncnc(N3CCN(C(=O)Nc4ccc(Oc5ccccc5)cc4)CC3)c2c1
